Experimental data published in ChEMBL document CHEMBL1152860, “Synthesis and antiproliferative activity of 3-amino-N-phenyl-1H-indazole-1-carboxamides” (2009).

Columns and labels:
Type in all cases: functional
HCC 2998 = assay: Growth inhibition of human HCC2998 cells after 48 hrs by SRB assay; conditions: HCC 2998, 48 h
OVCAR-8 = assay: Growth inhibition of human OVCAR8 cells after 48 hrs by SRB assay; conditions: OVCAR-8, 48 h
HOP-92 = assay: Growth inhibition of human HOP92 cells after 48 hrs by SRB assay; conditions: HOP-92, 48 h
KM12 = assay: Growth inhibition of human KM12 cells after 48 hrs by SRB assay; conditions: KM12, 48 h
A549 = assay: Growth inhibition of human A549 cells after 48 hrs by SRB assay; conditions: A549, 48 h
HCT-116 = assay: Growth inhibition of human HCT116 cells after 48 hrs by SRB assay; conditions: HCT-116, 48 h
CAKI-1 = assay: Growth inhibition of human Caki1 cells after 48 hrs by SRB assay; conditions: CAKI-1, 48 h
UACC-257 = assay: Growth inhibition of human UACC257 cells after 48 hrs by SRB assay; conditions: UACC-257, 48 h
HOP-62 = assay: Growth inhibition of human HOP62 cells after 48 hrs by SRB assay; conditions: HOP-62, 48 h
UACC-62 = assay: Growth inhibition of human UACC62 cells after 48 hrs by SRB assay; conditions: UACC-62, 48 h
[1] = Growth inhibition of human Hs 578T cells after 48 hrs by SRB assay
NCI/ADR-RES = assay: Growth inhibition of human NCI/ADR-RES cells after 48 hrs by SRB assay
SN12C = assay: Growth inhibition of human SN12C cells after 48 hrs by SRB assay
SK-MEL-5 = assay: Growth inhibition of human SK-MEL-5 cells after 48 hrs by SRB assay; conditions: SK-MEL-5, 48 h
SF-295 = assay: Growth inhibition of human SF295 cells after 48 hrs by SRB assay; conditions: SF-295, 48 h
BT-549 = assay: Growth inhibition of human BT549 cells after 48 hrs by SRB assay; conditions: BT-549, 48 h
M14 = assay: Growth inhibition of human M14 cells after 48 hrs by SRB assay; conditions: M14, 48 h
K562 = assay: Growth inhibition of human K562 cells after 48 hrs by SRB assay; conditions: K562, 48 h
NCI-H226 = assay: Growth inhibition of human NCI-H226 cells after 48 hrs by SRB assay; conditions: NCI-H226, 48 h
MDA-MB-435 = assay: Growth inhibition of human MDA-MB-435 cells after 48 hrs by SRB assay; conditions: MDA-MB-435, 48 h
HL-60(TB) = assay: Growth inhibition of human HL-60(TB) cells after 48 hrs by SRB assay; conditions: HL-60, 48 h
NCI-H522 = assay: Growth inhibition of human NCI-H522 cells after 48 hrs by SRB assay; conditions: NCI-H522, 48 h
ACHN = assay: Growth inhibition of human ACHN cells after 48 hrs by SRB assay
OVCAR-4 = assay: Growth inhibition of human OVCAR4 cells after 48 hrs by SRB assay; conditions: OVCAR-4, 48 h
A498 = assay: Growth inhibition of human A498 cells after 48 hrs by SRB assay; conditions: A498, 48 h
OVCAR-5 = assay: Growth inhibition of human OVCAR5 cells after 48 hrs by SRB assay; conditions: OVCAR-5, 48 h
SK-MEL-28 = assay: Growth inhibition of human SK-MEL-28 cells after 48 hrs by SRB assay; conditions: SK-MEL-28, 48 h
DU-145 = assay: Growth inhibition of human DU145 cells after 48 hrs by SRB assay; conditions: DU-145, 48 h
RXF 393 = assay: Growth inhibition of human […] cells after 48 hrs by SRB assay; conditions: RXF 393, 48 h
NCI-H23 = assay: Growth inhibition of human NCI-H23 cells after 48 hrs by SRB assay; conditions: NCI-H23, 48 h
NCI-H460 = assay: Growth inhibition of human NCI-H460 cells after 48 hrs by SRB assay; conditions: NCI-H460, 48 h
SNB-75 = assay: Growth inhibition of human SNB75 cells after 48 hrs by SRB assay; conditions: SNB-75, 48 h
OVCAR-3 = assay: Growth inhibition of human OVCAR-3 cells after 48 hrs by SRB assay; conditions: OVCAR-3, 48 h
PC-3 = assay: Growth inhibition of human PC3 cells after 48 hrs by SRB assay; conditions: PC-3, 48 h
Malme-3M = assay: Growth inhibition of human MALME-3M cells after 48 hrs by SRB assay
SK-OV-3 = assay: Growth inhibition of human SKOV3 cells after 48 hrs by SRB assay; conditions: SK-OV-3, 48 h
SF-539 = assay: Growth inhibition of human SF539 cells after 48 hrs by SRB assay; conditions: SF-539, 48 h
LOX IMVI = assay: Growth inhibition of human LOXIMVI cells after 48 hrs by SRB assay
EKVX = assay: Growth inhibition of human EKVX cells after 48 hrs by SRB assay
TK-10 = assay: Growth inhibition of human TK10 cells after 48 hrs by SRB assay; conditions: TK-10, 48 h
UO-31 = assay: Growth inhibition of human UO31 cells after 48 hrs by SRB assay; conditions: UO-31, 48 h
U-251 = assay: Growth inhibition of human U251 cells after 48 hrs by SRB assay; conditions: U-251, 48 h
SF-268 = assay: Growth inhibition of human SF268 cells after 48 hrs by SRB assay; conditions: SF-268, 48 h
HCT-15 = assay: Growth inhibition of human HCT15 cells after 48 hrs by SRB assay; conditions: HCT-15, 48 h
786-0 = assay: Growth inhibition of human 786-0 cells after 48 hrs by SRB assay; conditions: 786-0, 48 h
MDA-MB-231 = assay: Growth inhibition of human MDA-MB-231 cells after 48 hrs by SRB assay; conditions: MDA-MB-231, 48 h
[2] = read-out: LC50 (the source's name)

Nc1nn(C(=O)Nc2ccc(Cc3ccccc3)cc2)c2ccccc12
GI50 (HCC 2998): 4.27 µM | GI50 (OVCAR-8): 21.9 µM | GI50 (HOP-92): 14.2 µM | GI50 (KM12): 2.94 µM | TGI (KM12): > 100 µM | CC50 (KM12; [2]): > 100 µM | GI50 (A549): 12.9 µM | GI50 (HCT-116): 7.03 µM | GI50 (CAKI-1): 21.1 µM | GI50 (UACC-257): 10 µM | GI50 (HOP-62): 13.7 µM | GI50 (UACC-62): 0.353 µM | TGI (UACC-62): > 100 µM | CC50 (UACC-62; [2]): > 100 µM | GI50 [1]: 17.2 µM | GI50 (NCI/ADR-RES): 7.87 µM | GI50 (SN12C): 12.9 µM | GI50 (SK-MEL-5): 2.22 µM | TGI (SK-MEL-5): 8.64 µM | CC50 (SK-MEL-5; [2]): 34.3 µM | GI50 (SF-295): 0.53 µM | TGI (SF-295): > 100 µM | CC50 (SF-295; [2]): > 100 µM | GI50 (BT-549): 13.5 µM | GI50 (M14): 0.772 µM | TGI (M14): > 100 µM | CC50 (M14; [2]): > 100 µM | GI50 (K562): 1.2 µM | LC50 (concentration killing 50% of cells) (K562): > 100 µM | TGI (K562): 33.8 µM | GI50 (NCI-H226): 13.5 µM | GI50 (MDA-MB-435): 2.82 µM | TGI (MDA-MB-435): > 100 µM | CC50 (MDA-MB-435; [2]): > 100 µM | GI50 (HL-60(TB)): 0.466 µM | TGI (HL-60(TB)): 15.2 µM | CC50 (HL-60(TB); [2]): 54.9 µM | GI50 (NCI-H522): 2.9 µM | TGI (NCI-H522): > 100 µM | CC50 (NCI-H522; [2]): > 100 µM | GI50 (ACHN): 1.69 µM | TGI (ACHN): 33.4 µM | CC50 (ACHN; [2]): > 100 µM | GI50 (OVCAR-4): 10.7 µM | GI50 (A498): 16.7 µM | GI50 (OVCAR-5): 31.3 µM | GI50 (SK-MEL-28): 11.5 µM | GI50 (DU-145): 1.02 µM | TGI (DU-145): 28.3 µM | CC50 (DU-145; [2]): > 100 µM | GI50 (RXF 393): 22.2 µM | GI50 (NCI-H23): 16.8 µM | GI50 (NCI-H460): 0.408 µM | TGI (NCI-H460): 13 µM | CC50 (NCI-H460; [2]): 84.6 µM | GI50 (SNB-75): 17 µM | GI50 (OVCAR-3): 6.23 µM | GI50 (PC-3): 13.5 µM | GI50 (Malme-3M): 19.2 µM | GI50 (SK-OV-3): 36.9 µM | GI50 (SF-539): 0.495 µM | TGI (SF-539): 5.36 µM | CC50 (SF-539; [2]): > 100 µM | GI50 (LOX IMVI): 0.477 µM | LC50 (concentration killing 50% of cells) (LOX IMVI): 61.5 µM | TGI (LOX IMVI): 16.1 µM | GI50 (EKVX): 11.2 µM | GI50 (TK-10): 27.2 µM | GI50 (UO-31): 0.347 µM | TGI (UO-31): > 100 µM | CC50 (UO-31; [2]): > 100 µM | GI50 (U-251): 13.9 µM | GI50 (SF-268): 4.66 µM | GI50 (HCT-15): 1.08 µM | TGI (HCT-15): > 100 µM | CC50 (HCT-15; [2]): > 100 µM | GI50 (786-0): 3.76 µM | GI50 (MDA-MB-231): 0.847 µM | TGI (MDA-MB-231): 43.9 µM | CC50 (MDA-MB-231; [2]): > 100 µM
